Results from US20260226031A1, “NOVEL COMPOUNDS” (NRG THERAPEUTICS LTD., priority 2023, published 2026).

Legend:
[1] = tested on: mPTP; test: mPTP activity (Ca2+ retention) assay in isolated rat liver mitochondria; format: biochemical; conditions: isolated rat liver mitochondria; Fluo5N fluorescence at 10 min after CaCl2 (75 μM) bolus; DMSO 0%, 5 μM cyclosporin A 100% inhibition
Method in brief: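 Freshly isolated female Sprague Dawley rat liver mitochondria with succinate, rotenone and Fluo5N were preincubated 10 min at RT with compounds (final 30 μM to 1 nM), then challenged with CaCl2. Fluorescence at 10 min gave % inhibition versus DMSO (0%) and 5 μM cyclosporin A (100%); pIC50 calculated.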

[2] = tested on: mPTP; test: mPTP activity (Ca2+ retention) assay in isolated rat brain mitochondria; format: biochemical; conditions: isolated rat brain mitochondria; Fluo5N fluorescence at 10 min after Ca2+ (75 μM) bolus
Method in brief: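 Mitochondria freshly isolated from brains of perfused female Sprague Dawley rats, digitonin-treated, in pH 7.4 mannitol/MOPS/KCl buffer with pyruvate, malate, ADP and oligomycin A. Incubated with compound 10 min at RT with 2 μM Fluo5N. Fluorescence then read every 3 s for 10 min.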

SMILES | mPTP Rat liver pIC50* [1] | mPTP Rat brain pIC50 [2]
O=C(c1noc(=O)[nH]1)N1CC(c2ccc(F)c(F)c2)C2(CCC2)C1 (single isomer, unassigned) [Example 47b, 3-(8-(3,4-difluorophenyl)-6-azaspiro[3.4]octane-6-carbonyl)-1,2,4-oxadiazol-5(4H)-one] | <4.52 | <4.52
O=C(c1noc(=O)[nH]1)N1CC(c2ccc(F)cc2F)C2(CCC2)C1 (single isomer, unassigned) [Example 48a, 3-(8-(2,4-difluorophenyl)-6-azaspiro[3.4]octane-6-carbonyl)-1,2,4-oxadiazol-5(4H)-one] | 5.53 | 6.47
O=C(c1noc(=O)[nH]1)N1CC(c2ccc(F)cc2F)C2(CCC2)C1 (single isomer, unassigned) [Example 48b, 3-(8-(2,4-difluorophenyl)-6-azaspiro[3.4]octane-6-carbonyl)-1,2,4-oxadiazol-5(4H)-one] | <4.52 | <4.52
O=C(c1cncc(O)c1)N1CC(c2ccccc2)C2(CCC2)C1 (stereo not drawn) [Example 1a, (5-hydroxypyridin-3-yl)(8-phenyl-6-azaspiro[3.4]octan-6-yl)methanone] | 5.68 | 6.73
O=C(c1cncc(O)n1)N1CC(c2ccccc2)C2(CCC2)C1 (stereo not drawn) [Example 2, (6-hydroxypyrazin-2-yl)(8-phenyl-6-azaspiro[3.4]octan-6-yl)methanone] | 5.80 | 6.90
CC1(C)CN(C(=O)c2cncc(O)c2)CC1c1ccccc1 (stereo not drawn) [Example 4, (3,3-dimethyl-4-phenylpyrrolidin-1-yl)(5-hydroxypyridin-3-yl)methanone] | 5.47 | 6.22
O=C(c1cncc(=O)[nH]1)N1CC(c2ccccc2F)C2(CCC2)C1 (stereo not drawn) [Example 7, 6-(8-(2-fluorophenyl)-6-azaspiro[3.4]octane-6-carbonyl)pyrazin-2(1H)-one] | 5.95 | 7.11
CC1(C)CN(C(=O)c2cncc(=O)[nH]2)CC1c1ccccc1 (stereo not drawn) [Example 8, 6-(3,3-dimethyl-4-phenylpyrrolidine-1-carbonyl)pyrazin-2(1H)-one] | 6.04 | 6.97
CC1(C)CN(C(=O)c2cncc(=O)[nH]2)CCC1c1ccccc1 (stereo not drawn) [Example 9, 6-(3,3-dimethyl-4-phenylpiperidine-1-carbonyl)pyrazin-2(1H)-one] | 5.28 | 6.61
Cn1nc(C(=O)N2CC(c3ccccc3F)C3(CCC3)C2)[nH]c1=O (stereo not drawn) [Example 11, 5-(8-(2-fluorophenyl)-6-azaspiro[3.4]octane-6-carbonyl)-2-methyl-2,4-dihydro-3H-1,2,4-triazol-3-one] | 4.75 | 6.25
O=C(c1cc(O)no1)N1CC(c2ccccc2)C2(CCC2)C1 (stereo not drawn) [Example 22, (3-hydroxyisoxazol-5-yl)(8-phenyl-6-azaspiro[3.4]octan-6-yl)methanone] | 6.12 | 6.7
O=C(c1noc(=O)[nH]1)N1CC(c2ccccc2)C2(CCC2)C1 (stereo not drawn) [Example 24, 3-[8-Phenyl-6-azaspiro[3.4]octane-6-carbonyl]-4H-1,2,4-oxadiazol-5-one] | 6.02 | 6.75
